From PubChem BioAssay (NCI)
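48-hour exposure; five concentrations; linearly interpolated endpoints. The concentration for full growth arrest is given as TGI.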

Columns and labels:
Assay in all cases: inhibition of tumour cell growth, NCI panel, 48 h
SF-268 CNS = system: SF-268 CNS
EKVX NSCLC = system: EKVX NSCLC
CAKI-1 renal = system: CAKI-1 renal
K-562 leukemia = system: K-562 leukemia
TK-10 renal = system: TK-10 renal
A549 NSCLC = system: A549 NSCLC
SK-MEL-28 melanoma = system: SK-MEL-28 melanoma
DU-145 prostate = system: DU-145 prostate
NCI-H522 lung = system: NCI-H522 lung
HOP-92 NSCLC = system: HOP-92 NSCLC

Row | SMILES | TGI (SF-268 CNS) [µM] | TGI (EKVX NSCLC) [µM] | TGI (CAKI-1 renal) [µM] | TGI (K-562 leukemia) [µM] | TGI (TK-10 renal) [µM] | TGI (A549 NSCLC) [µM] | TGI (SK-MEL-28 melanoma) [µM] | TGI (DU-145 prostate) [µM] | TGI (NCI-H522 lung) [µM] | TGI (HOP-92 NSCLC) [µM]
1 | O=C1c2ccccc2-c2nc(-c3ccccc3)cc3c2c1nc1ccccc13 | 65.7 | 88.3 | 74.9 | > 100 | 42.5 | 52.9 | 22.9 | 29.6 |  | 
2 | C#CCSc1nc(N)c2ncn(C3OC(COP(=O)(O)O)C(O)C3O)c2n1 (stereo not drawn) | > 239 | > 239 | > 239 | > 239 | > 239 | > 239 | > 239 |  | > 239 | > 239
3 | O=C1NC2CCCCC2N=C1/C(C(=O)c1ccccc1)=C(\O)c1ccccc1 (stereo not drawn) | > 100 | > 100 | > 100 | > 100 | > 100 | > 100 | > 100 | > 100 | 61.9 | 
4 | COc1cc(C(c2cccc3ccccc23)N2C(=O)CCC2C(=O)NCc2ccccc2)cc(OC)c1OC (stereo not drawn) | > 100 | > 100 | > 100 |  |  | > 100 | > 100 | > 100 | > 100 | > 100
5 | N#Cc1c(Nc2nc3ccccc3s2)c2ccccc2n2c1nc1ccccc12 | > 100 | > 100 | > 100 |  | > 100 | > 100 | > 100 | > 100 | > 100 | > 100
6 | COc1cccc(NC(=O)CC(=O)NNCC(=O)Nc2nnc(-c3ccc(N(CCC#N)S(=O)(=O)c4ccccc4)cc3)s2)c1 | > 100 | > 100 | > 100 | > 100 | > 100 | > 100 | > 100 |  | > 100 | > 100
7 | CN1Cc2c(nc(-c3ccc(Br)cc3)c[n+]2[O-])N(C)C1 | > 100 | > 100 | > 100 | > 100 |  | > 100 | > 100 |  | > 100 | > 100
8 | Cc1nn(C)c2nc3ccc(Cl)cc3c(-c3ccccc3)c12 | > 100 | > 100 | > 100 | > 100 |  | > 100 | > 100 | > 100 | > 100 | > 100
9 | CCCCc1ccc(-n2sc3ncccc3c2=O)cc1 | 47.4 | 25.2 |  |  | 27.4 | 99.4 | 33.1 | > 100 | 8.4 | 
10 | COc1ccc2c(c1OC)C(=O)O[C@@H]2[C@H]1c2cc3c(cc2CCN1C)OCO3 | > 100 | > 100 | > 100 | > 100 | > 100 | > 100 |  | > 100 | > 100 | > 100
11 | COc1cc(OC)cc(-n2c(N)c(-c3nc4ccccc4n3C)c3ccc([N+](=O)[O-])cc3c2=O)c1 | > 100 |  | > 100 | > 100 | > 100 | > 100 | > 100 | > 100 | > 100 | 68
12 | CC(=O)Nc1ccc(C(=O)N2N=C(C)/C(=C/c3cccc([N+](=O)[O-])c3)C2=O)cc1 | > 100 | > 100 | > 100 | > 100 | > 100 | > 100 | > 100 |  | > 100 | 
13 | CC(=O)C12C[C@](C#N)(N3CCCCCC3)C1C=Cc1ccccc12 (stereo partly drawn) | > 100 | > 100 | > 100 | > 100 | > 100 | > 100 | > 100 | > 100 | > 100 | 
14 | N#CC1(c2ccccc2)CCN(C2(c3ccccc3)CCCCC2)CC1 | > 100 | > 100 | > 100 | > 100 | > 100 | > 100 | > 100 | > 100 |  | 
15 | CN(/N=N/c1nc[nH]c1C(N)=O)C1CCCCC1 | > 100 | > 100 |  |  | > 100 | > 100 | > 100 |  | > 100 | > 100
16 | [N-]=[N+]=NC[C@H]1OCO[C@H](CN=[N+]=[N-])[C@H]2OCCOCCOc3ccccc3OCCOCCO[C@@H]21 | > 100 | > 100 | > 100 | > 100 | > 100 | > 100 | > 100 | > 100 | > 100 | 
17 | C=CCC1(CC)C(=O)NC(=O)NC1=O | > 100 | > 100 |  | > 100 | > 100 | > 100 | > 100 |  | > 100 | 
18 | Cc1cc(S(=O)(=O)Nc2nc3ccccc3n2-c2ccccc2)c(S)cc1Cl | > 100 | > 100 | > 100 | > 100 |  | > 100 | > 100 | > 100 | > 100 | > 100
19 | CCOC(=O)c1c(NCc2ccccc2)n(-c2ccccc2)c(=S)n(-c2ccccc2)c1=O | > 100 |  |  | > 100 | > 100 | > 100 | > 100 | > 100 | > 100 | > 100
20 | COC(=O)/C=C/c1cc(OC)c2oc(-c3ccc(OC)c(OC)c3)c(C(=O)OC)c2c1 | > 100 | > 100 | > 100 | > 100 | > 100 | > 100 | > 100 | > 100 |  | > 100
21 | Cc1ccc(S(=O)(=O)c2ccc([N+](=O)[O-])o2)cc1 | 46.6 | 7.79 | 1.54 |  | 3.04 | 28.1 | 3.81 | 8.58 | 0.578 | 4.32
22 | Oc1ccc(Cl)cc1C1=N/C(=N\C/N=C2\N=C(c3cc(Cl)ccc3O)CC(c3ccccc3)N2)NC(c2ccccc2)C1 (stereo not drawn) | > 100 | > 100 | > 100 | > 100 | > 100 | > 100 | > 100 | > 100 |  | > 100
23 | CC(C)(C)OC(=O)NCC(=O)NC1C/C(=N\O)c2sccc21 (stereo not drawn) | > 100 | > 100 | > 100 | > 100 | > 100 | > 100 | > 100 | > 100 |  | 
24 | Cc1c(C#N)c2nnn(-c3ccccc3)c(=O)n2c1-c1ccccc1 | > 100 | > 34.5 | > 100 | 0.801 | > 100 | > 45.8 | > 100 | 8.45 |  | > 100
